Source: article PMC12775434, “Ultra-large virtual screening unveils potent agonists of the neuromodulatory orphan receptor GPR139” (Nature Communications, 2025)
Where “and” joins values, the source holds several entries; their conditions need not be identical. Equal values may be shown once.

Tests used:
Format in all cases: cell-based
[1] = molecular target: T1, human muscarinic acetylcholine M1 receptor (M1R) (Homo sapiens, UniProt P11229); assay: Ca2+ mobilization counter-screen in M1R-CHOk1 cells
T1 sequence (P11229 1-460): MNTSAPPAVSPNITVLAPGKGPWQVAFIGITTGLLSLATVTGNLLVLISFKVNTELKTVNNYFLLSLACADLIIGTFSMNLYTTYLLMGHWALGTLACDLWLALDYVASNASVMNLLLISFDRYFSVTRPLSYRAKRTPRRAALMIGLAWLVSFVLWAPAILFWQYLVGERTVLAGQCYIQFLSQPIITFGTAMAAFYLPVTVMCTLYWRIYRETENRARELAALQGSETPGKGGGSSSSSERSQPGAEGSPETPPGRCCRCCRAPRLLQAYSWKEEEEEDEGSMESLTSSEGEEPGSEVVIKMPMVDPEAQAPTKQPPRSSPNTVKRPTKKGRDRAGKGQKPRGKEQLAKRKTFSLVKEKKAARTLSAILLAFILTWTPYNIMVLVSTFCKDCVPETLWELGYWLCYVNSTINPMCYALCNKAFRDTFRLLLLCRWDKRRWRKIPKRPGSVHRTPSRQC
Outline: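 M1R-CHOk1 cells seeded 20–24 h, loaded with 2 µM Fluo-4 AM (2.5 mM probenecid, 0.01% Pluronic F-68) for 1 h at 37 °C in HBSS/20 mM HEPES pH 7.4. Compounds added after baseline (≤0.3% DMSO); calcium fluorescence read at 37 °C, ex 485/em 525 nm.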

GPR139 [2] = molecular target: T2, GPR139 (Homo sapiens, UniProt Q6DWJ6); assay: Ca2+ mobilization assay, antagonist mode (EC80 800 nM Lundbeck Cmp 1a after 20 min preincubation), GPR139-CHOk1
T2 sequence (Q6DWJ6 1-353): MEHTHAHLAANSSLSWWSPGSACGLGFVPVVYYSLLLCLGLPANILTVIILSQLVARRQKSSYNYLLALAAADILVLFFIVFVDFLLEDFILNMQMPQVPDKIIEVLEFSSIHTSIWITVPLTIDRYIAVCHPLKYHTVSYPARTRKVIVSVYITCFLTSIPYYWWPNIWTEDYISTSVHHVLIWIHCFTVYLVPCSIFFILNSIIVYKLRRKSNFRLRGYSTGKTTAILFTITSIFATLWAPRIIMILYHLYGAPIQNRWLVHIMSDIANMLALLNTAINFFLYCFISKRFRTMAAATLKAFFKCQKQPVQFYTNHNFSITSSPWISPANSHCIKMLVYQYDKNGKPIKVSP
Outline: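 Fluo-4-loaded GPR139-CHOk1 cells in HEPES-buffered HBSS (pH 7.4, 2.5 mM probenecid) given test compounds at 10 µM, then after 20 min challenged with 800 nM Lundbeck Cmp 1a (EC80). Calcium fluorescence read at 37 °C, 485/525 nm.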

GPR139 [3] = molecular target: T2, GPR139; assay: Ca2+ mobilization assay, agonist mode, stable GPR139-CHOk1 cell line; conditions: for EC50 / Emax: Supplementary Table 2, mean ± SEM; for EC50: read-out: pEC50 Ca2+ (converted); for Emax: normalized to Lundbeck Cmp 1a, read-out: Emax (%) Ca2+
Outline: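 Agonist activity of compounds is assessed in stably transfected CHO-K1 cells using the calcium dye Fluo-4 at 37 °C in HEPES-buffered HBSS (pH 7.4). Efficacy is expressed relative to the reference agonist Lundbeck Cmp 1a, set as 100%.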

[4] = individual replicates (Supplementary Figure 5)
[5] = individual replicates (Supplementary Figure 4)
[6] = Agonist mode, individual replicates (Supplementary Figure 4)
[7] = log [Compound] M = -4.5, individual replicate columns
[8] = log [Compound] M = -5.0, individual replicate columns
[9] = log [Compound] M = -5.5, individual replicate columns
[10] = log [Compound] M = -6.0, individual replicate columns
[11] = log [Compound] M = -6.5, individual replicate columns
[12] = log [Compound] M = -7.0, individual replicate columns
[13] = log [Compound] M = -7.5, individual replicate columns
[14] = log [Compound] M = -8.0, individual replicate columns
[15] = log [Compound] M = -8.5, individual replicate columns
[16] = log [Compound] M = -9.0, individual replicate columns

| SMILES | Ca2+ signal (% of Carbachol) [1, 4] | Ca2+ signal (% of Cmp 1a) (GPR139 [2]; [5]) | Ca2+ signal (% of Cmp 1a) (GPR139 [3]; [6]) | EC50 (GPR139 [3]) [µM] | Emax (GPR139 [3]) [%] | Ca2+ signal (% of Cmp 1a) (GPR139 [3]; [7]) | Ca2+ signal (% of Cmp 1a) (GPR139 [3]; [8]) | Ca2+ signal (% of Cmp 1a) (GPR139 [3]; [9]) | Ca2+ signal (% of Cmp 1a) (GPR139 [3]; [10]) | Ca2+ signal (% of Cmp 1a) (GPR139 [3]; [11]) | Ca2+ signal (% of Cmp 1a) (GPR139 [3]; [12]) | Ca2+ signal (% of Cmp 1a) (GPR139 [3]; [13]) | Ca2+ signal (% of Cmp 1a) (GPR139 [3]; [14]) | Ca2+ signal (% of Cmp 1a) (GPR139 [3]; [15]) | Ca2+ signal (% of Cmp 1a) (GPR139 [3]; [16]) | other results |
| --- | --- | --- | --- | --- | --- | --- | --- | --- | --- | --- | --- | --- | --- | --- | --- | --- |
| Cc1ccc(-c2nc(CC(=O)NC(C)c3ccccc3)no2)cn1 (stereo not shown) [Compound 1.32, CC(C1=CC=CC=C1)NC(CC2=NOC(C3=CN=C(C)C=C3)=N2)=O] | -19 % of Carbachol and -6 % of Carbachol and 8 % of Carbachol | 66 % of Cmp 1a and 64 % of Cmp 1a and 48 % of Cmp 1a | 72 % of Cmp 1a and 83 % of Cmp 1a | 3.16 | 82 ± 9 | 119 % of Cmp 1a and 81 % of Cmp 1a and 67 % of Cmp 1a | 69 % of Cmp 1a (2×) and 43 % of Cmp 1a | 37 % of Cmp 1a and 66 % of Cmp 1a and 27 % of Cmp 1a | 13 % of Cmp 1a and 24 % of Cmp 1a and -2 % of Cmp 1a | -0.322 % of Cmp 1a and 4.26 % of Cmp 1a and 0.586 % of Cmp 1a | -6.64 % of Cmp 1a and 3.41 % of Cmp 1a and 1.32 % of Cmp 1a | -5 % of Cmp 1a and 2.31 % of Cmp 1a and 1.1 % of Cmp 1a | 10 % of Cmp 1a and 3 % of Cmp 1a and 2.26 % of Cmp 1a | 1.63 % of Cmp 1a and 4.29 % of Cmp 1a and 1.12 % of Cmp 1a | -8 % of Cmp 1a and 9 % of Cmp 1a and -2.5 % of Cmp 1a |  |
| Cc1cccc(-c2nc(CC(=O)NC(C)c3ccccc3)no2)n1 (stereo not shown) [Compound 1.13, CC(C1=CC=CC=C1)NC(CC2=NOC(C3=NC(C)=CC=C3)=N2)=O] | -3 % of Carbachol and 3 % of Carbachol and 7 % of Carbachol | 7 % of Cmp 1a and 16 % of Cmp 1a and -17 % of Cmp 1a | 87 % of Cmp 1a and 109 % of Cmp 1a and 94 % of Cmp 1a | 0.398 | 95 ± 10 | 113 % of Cmp 1a and 100 % of Cmp 1a and 105 % of Cmp 1a and 55 % of Cmp 1a | 98 % of Cmp 1a and 101 % of Cmp 1a and 89 % of Cmp 1a and 78 % of Cmp 1a | 85 % of Cmp 1a and 87 % of Cmp 1a and 83 % of Cmp 1a and 50 % of Cmp 1a | 76 % of Cmp 1a and 73 % of Cmp 1a (2×) and 42 % of Cmp 1a | 49 % of Cmp 1a (2×) and 40 % of Cmp 1a and 22 % of Cmp 1a | 28 % of Cmp 1a and 33 % of Cmp 1a and 12 % of Cmp 1a (2×) | 0 % of Cmp 1a and 14 % of Cmp 1a and -10 % of Cmp 1a and 13 % of Cmp 1a | 8 % of Cmp 1a and 0.667 % of Cmp 1a and -4 % of Cmp 1a and -5 % of Cmp 1a | 8 % of Cmp 1a and -4.67 % of Cmp 1a and -2.67 % of Cmp 1a and -3 % of Cmp 1a | 2 % of Cmp 1a (2×) and -0.333 % of Cmp 1a and -15 % of Cmp 1a | fold decrease in potency relative to a similar phenyl substituted compound (1.3) (GPR139 [3]; Ca2+ mobilization EC50): 4- to 16 fold |
| Cc1nc(-c2nc(CC(=O)NC(C)c3ccccc3)no2)co1 (stereo not shown) [Compound 1.29, CC(C1=CC=CC=C1)NC(CC2=NOC(C3=COC(C)=N3)=N2)=O] | -4.71 % of Carbachol and 3.73 % of Carbachol and 1.63 % of Carbachol | 41 % of Cmp 1a and 13 % of Cmp 1a and 3 % of Cmp 1a | 64 % of Cmp 1a and 49 % of Cmp 1a and 69 % of Cmp 1a | 2.51 | 90 ± 8 | 126 % of Cmp 1a and 100 % of Cmp 1a and 74 % of Cmp 1a | 67 % of Cmp 1a and 101 % of Cmp 1a and 61 % of Cmp 1a | 46 % of Cmp 1a and 95 % of Cmp 1a and 41 % of Cmp 1a | 17 % of Cmp 1a and 47 % of Cmp 1a and 13 % of Cmp 1a | 0.562 % of Cmp 1a and 21 % of Cmp 1a and 3 % of Cmp 1a | -7 % of Cmp 1a and 12 % of Cmp 1a and 3 % of Cmp 1a | -2.32 % of Cmp 1a and 6.5 % of Cmp 1a and 3.51 % of Cmp 1a | 0.891 % of Cmp 1a and 5.39 % of Cmp 1a and 3 % of Cmp 1a | -0.262 % of Cmp 1a and 8 % of Cmp 1a and -2.12 % of Cmp 1a | -0.615 % of Cmp 1a and 11 % of Cmp 1a and -1.07 % of Cmp 1a |  |
| O=C(NCc1ccc(Cl)o1)N1CCCc2ccccc2C1 [Compound 7, ClC1=CC=C(CNC(=O)N2CCCC=3C=CC=CC3C2)O1] |  |  |  |  |  |  |  |  |  |  |  |  |  |  |  | Ca2+ signal (% of Carbachol) ([1]; individual replicates (Supplementary Figure 2)): -10 % of Carbachol and -18 % of Carbachol; Ca2+ signal (% of Cmp 1a) (GPR139 [2]; individual replicates (Supplementary Figure 1)): 37.7665 % of Cmp 1a and 52.8581 % of Cmp 1a and 40.8806 % of Cmp 1a; Ca2+ signal (% of Cmp 1a) (GPR139 [3]; 0.1 µM, individual replicates (Supplementary Figure 3)): 16.2 % of Cmp 1a and 6.0 % of Cmp 1a; Ca2+ signal (% of Cmp 1a) (GPR139 [3]; 1 µM, individual replicates (Supplementary Figure 3)): 2.4 % of Cmp 1a and 4.1 % of Cmp 1a; Ca2+ signal (% of Cmp 1a) (GPR139 [3]; 10 µM, individual replicates (Supplementary Figure 3)): 22.7 % of Cmp 1a and 24.5 % of Cmp 1a; activation of GPR139 at three concentrations (GPR139 [3]; 0.1, 1 and 10 µM, activity too low to reliably determine EC50): concentration-dependent activation of GPR139; Ca2+ signal (% of Cmp 1a) (GPR139 [3]; Agonist mode, individual replicates (Supplementary Figure 1)): 44 % of Cmp 1a and 39 % of Cmp 1a and 33 % of Cmp 1a; Ca2+ signal (% of Cmp 1a) (GPR139 [3]; primary screen, 10 µM compound, agonist mode, three columns = independent experiments): 44 % of Cmp 1a and 39 % of Cmp 1a and 33 % of Cmp 1a |
| CC(C)c1ccc(-c2nc(CC(=O)NC(C)c3ccccc3)no2)s1 (stereo not shown) [Compound 1.41, CC(C)C1=CC=C(S1)C2=NC(CC(=O)NC(C)C=3C=CC=CC3)=NO2] | -18 % of Carbachol and 8 % of Carbachol and -8 % of Carbachol | 24 % of Cmp 1a and 11 % of Cmp 1a and -0.667 % of Cmp 1a | 66 % of Cmp 1a and 76 % of Cmp 1a and 60 % of Cmp 1a | 1.58 | 67 ± 4 | 69 % of Cmp 1a and 62 % of Cmp 1a and 57 % of Cmp 1a | 70 % of Cmp 1a and 71 % of Cmp 1a and 40 % of Cmp 1a | 56 % of Cmp 1a and 47 % of Cmp 1a and 25 % of Cmp 1a | 34 % of Cmp 1a and 27 % of Cmp 1a and 22 % of Cmp 1a | 15 % of Cmp 1a and 0.333 % of Cmp 1a and 5.33 % of Cmp 1a | 13 % of Cmp 1a and -9 % of Cmp 1a and 4.33 % of Cmp 1a | -1.33 % of Cmp 1a and -6.33 % of Cmp 1a and 3 % of Cmp 1a | -4.33 % of Cmp 1a and 0 % of Cmp 1a (2×) | 0 % of Cmp 1a and -2.67 % of Cmp 1a and 0.333 % of Cmp 1a | -1.67 % of Cmp 1a and -4.33 % of Cmp 1a and -2.33 % of Cmp 1a | change in potency with larger substituents on the thiophene ring (GPR139 [3]; Ca2+ mobilization): three-fold reduction to a complete loss of activity |
